Molecules are shown by their SMILES.

For one data set, the system named is G-401 cells. As to the kind of experiment: Cell proliferation inhibition experiment using G-401 cells. In kind it is cell-based. The protocol: G-401 cells (derived from malignant rhabdoid tumor) were obtained from the American Type Culture Collection (ATCC). G-401 cells were cultured in McCoy's 5A medium containing 10% fetal bovine serum and 1% penicillin/streptomycin under conditions of 37° C. and 5% CO2.
500 cells per well were seeded in a 384-well plate. One day after seeding, Examples 1 to 35 were added so that the final concentration of DMSO was 0.1%, and the cells were cultured for 3 days. After the culture was completed, the cell viability was measured using CellTiter-Glo Luminescent Cell Viability Assay (Promega, G7570).

A further data set in a line: Solubility test. In kind it is physicochemical. To be noted: pH 2.0 and pH 3.0 buffers. The protocol: The solubility was measured for Examples 7, 10, 20, 23, 24, and 30 to 34, Comparative Example 1, and Comparative Example 2. The test compound was added to 10 mmol/L glycine buffer (pH 2.0) and 10 mmol/L citrate buffer (pH 3.0), and the mixture was stored in a thermostatic chamber at 5° C. After standing overnight, the mixture was filtered through a membrane filter, and the concentration of the filtrate was measured by HPLC.
The HPLC measurement conditions are as follows.
HPLC conditions • Column: Acquity UPLC BEH C18, 1.7 μm, 50×2.1 mm • Column temperature: 40° C. • Mobile phase: A: 0.1% trifluoroacetic acid-containing water • B: acetonitrile • A/B (min): 95/5 (0)→0/100 (3.5)→0/100 (4)→95/5 (4.01)→95/5 (5) • Flow rate: 0.8 mL/min • Detection: UV visible detector, measurement wavelength 254 nm • Injection volume: 5 μL or • Column: Acquity UPLC BEH C18, 1.7 μm, 50×2.1 mm • Column temperature: 40° C. • Mobile phase: A: 0.1% trifluoroacetic acid-containing water • B: acetonitrile • A/B (min): • 80/20 (0)→40/60 (3.0)→0/100 (3.5)→0/100 (4)→80/20 (4.01)→80/20 (5) • Flow rate: 0.8 mL/min • Detection: UV visible detector, measurement wavelength 254 nm • Injection volume: 2 μL or • Column: Acquity UPLC BEH C18, 1.7 μm, 50×2.1 mm • Column temperature: 40° C. • Mobile phase: A: 0.1% trifluoroacetic acid-containing water • B: acetonitrile • A/B (min): • 80/20 (0)→40/60 (3.0)→0/100 (3.5)→0/100 (4)→100/0 (4.01)→100/0 (5) • Flow rate: 0.8 mL/min • Detection: UV visible detector, measurement wavelength 254 nm • Injection volume: 3 μL

The nature of data set [1]: Pharmacokinetic study in mice. In kind it is in vivo. The protocol: The test compound was administered to 7-week-old female BALE/c (BALB/cAnN CrlCrlj) mice intravenously (dosage: 1 mg/kg) in a 50% PEG solution (0.01 mol/L HCl) or orally (dosage: 10 mg/kg) in a 0.5% methylcellulose aqueous solution, and blood was collected at the following times: • Intravenous administration: 5 min, 15 min, 30 min, 1 hr, 2 hr, 4 hr, 6 hr, and 24 hr after administration • Oral administration: 15 min, 30 min, 1 hr, 2 hr, 4 hr, 6 hr, and 24 hr after administration
The collected blood was centrifuged at 3000 rpm×10 min using a refrigerated centrifuge set at 4° C., and the obtained plasma was measured by LC-MS. A calibration curve was prepared from the value (peak ratio) obtained by dividing the peak area of the test substance by the peak area of the internal standard substance in MS and the concentration of the plasma calibration curve sample. The concentration in the sample was calculated from the peak ratio and the calibration curve of each sample.

The test system of data set [2] is G-401 xenograft. In words: Drug efficacy evaluation by oral administration using G-401 xenograft model mice. In kind it is in vivo. How it is done:
(§1) G-401 cells (ATCC) were intradermally transplanted into 4-7-week-old BALB/cAnNCrj-nu/nu mice (CAnN.Cg-Foxnl/CrlCrlj, Jackson Laboratory Japan) at 5×10^5 cells/mouse. After confirming the engraftment of G-401 cells 10-40 days after transplantation, the test compound suspended in a solvent such as 0.5% methylcellulose solution was orally administered twice a day at a dose of 1-100 mg/kg. The tumor volume was measured over time from the start of administration, and the effect of tumor volume reduction by administration of the test compound was evaluated. The tumor volume can be calculated from the following equation using the minor axis and major axis of the tumor measured with an electronic caliper (Mitutoyo).
A control administration group administered with only a solvent such as 0.5% methylcellulose solution and a test compound administration group were compared, and the antitumor effect was evaluated by calculating T/C from the following equation.

Data set [3] deals with G-401 xenograft. As to the kind of experiment: Drug efficacy evaluation by intravenous administration using G-401 xenograft mice model. In kind it is in vivo. To be noted: G-401 xenograft model. The protocol: as §1, with “as 10 mmol/L glycine buffer” for “as 0.5% methylcellulose”, “solution (pH 2.0)” for “solution”, “was” for “was orally”, “administered via the tail vein at least once” for “administered twice”, “a week” for “a day”, “of 0.015-20” for “of 1-100”
A control administration group administered with only a solvent such as 10 mmol/L glycine buffer solution (pH 2.0) and a test compound administration group were compared, and the antitumor effect was evaluated by calculating T/C from the following equation.

A further data set deals with hDAT (Homo sapiens (Human), UniProt Q01959). As to the kind of experiment: Dopamine receptor inhibitory activity evaluation (binding assay, CHO-S/hDAT membranes). To be noted: off-target. The protocol: The binding evaluation assay was outsourced to Eurofins. Specifically, CHO—S/hDAT cells were homogenized in an incubation buffer consisting of 50 mmol/L Tris-HCl, pH 7.4, 100 mmol/L NaCl, 1 μmol/L Leupeptin, and 10 μmol/L PMSF. The membrane pellet obtained by centrifugation was resuspended in the incubation buffer to prepare a membrane preparation. The test compound (1-10 μmol/L DMSO solution), the membrane preparation, and 0.15 nmol/L […] were mixed and incubated at 4° C. for 180 minutes. The cell membrane-[^125I]RTI-55 complex was bound to a GF/B filter mat by vacuum filtration and washed with 50 mmol/L Tris-HCl, pH 7.4. The effect on the receptor was assessed by measuring radioactivity using a scintillation counter.
Sequence of hDAT (Q01959 whole entry): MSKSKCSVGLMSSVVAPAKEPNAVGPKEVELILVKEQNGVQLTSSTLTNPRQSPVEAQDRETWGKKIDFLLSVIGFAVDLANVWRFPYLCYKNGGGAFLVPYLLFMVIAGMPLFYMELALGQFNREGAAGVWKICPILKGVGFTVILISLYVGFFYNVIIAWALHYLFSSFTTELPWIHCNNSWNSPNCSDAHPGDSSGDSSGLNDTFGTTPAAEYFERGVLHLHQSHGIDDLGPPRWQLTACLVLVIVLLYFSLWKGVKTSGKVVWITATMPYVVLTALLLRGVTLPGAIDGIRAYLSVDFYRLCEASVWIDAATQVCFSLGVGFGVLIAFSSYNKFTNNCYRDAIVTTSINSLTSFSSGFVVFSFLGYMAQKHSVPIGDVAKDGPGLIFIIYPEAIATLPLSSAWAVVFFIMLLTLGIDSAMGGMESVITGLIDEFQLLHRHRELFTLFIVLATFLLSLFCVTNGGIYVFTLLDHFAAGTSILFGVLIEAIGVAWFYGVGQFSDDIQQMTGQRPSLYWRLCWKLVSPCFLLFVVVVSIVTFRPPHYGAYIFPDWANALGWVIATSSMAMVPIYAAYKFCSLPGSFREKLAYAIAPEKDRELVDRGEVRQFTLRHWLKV

A further data set deals with hSERT (Homo sapiens (Human), UniProt P31645). As to the kind of experiment: Serotonin receptor inhibitory activity evaluation (binding assay, HEK293/hSERT membranes). To be noted: off-target. How it is done: The binding evaluation assay was outsourced to Eurofins. Specifically, HEK293/hSERT cells were homogenized in a buffer consisting of 100 mmol/L NaCl, 1 μmol/L Leupeptin, 10 μmol/L PMSF, and 50 mmol/L Tris-HCl (pH7.4). The membrane pellet obtained by centrifugation was resuspended in an incubation buffer consisting of 50 mmol/L Tris-HCl (pH 7.4), 120 mmol/L NaCl, and 5 mmol/L KCl to prepare a membrane preparation. The test compound (1-10 μmol/L DMSO solution), the membrane preparation, and 0.4 nmol/L [^3H]Paroxetin were mixed and incubated at 25° C. for 60 minutes. The cell membrane-[^3H]Paroxetin complex was bound to a GF/B filter mat by vacuum filtration and washed with 50 mmol/L Tris-HCl (pH 7.4). The effect on the receptor was assessed by measuring radioactivity using a scintillation counter.
Sequence of hSERT (P31645 whole entry): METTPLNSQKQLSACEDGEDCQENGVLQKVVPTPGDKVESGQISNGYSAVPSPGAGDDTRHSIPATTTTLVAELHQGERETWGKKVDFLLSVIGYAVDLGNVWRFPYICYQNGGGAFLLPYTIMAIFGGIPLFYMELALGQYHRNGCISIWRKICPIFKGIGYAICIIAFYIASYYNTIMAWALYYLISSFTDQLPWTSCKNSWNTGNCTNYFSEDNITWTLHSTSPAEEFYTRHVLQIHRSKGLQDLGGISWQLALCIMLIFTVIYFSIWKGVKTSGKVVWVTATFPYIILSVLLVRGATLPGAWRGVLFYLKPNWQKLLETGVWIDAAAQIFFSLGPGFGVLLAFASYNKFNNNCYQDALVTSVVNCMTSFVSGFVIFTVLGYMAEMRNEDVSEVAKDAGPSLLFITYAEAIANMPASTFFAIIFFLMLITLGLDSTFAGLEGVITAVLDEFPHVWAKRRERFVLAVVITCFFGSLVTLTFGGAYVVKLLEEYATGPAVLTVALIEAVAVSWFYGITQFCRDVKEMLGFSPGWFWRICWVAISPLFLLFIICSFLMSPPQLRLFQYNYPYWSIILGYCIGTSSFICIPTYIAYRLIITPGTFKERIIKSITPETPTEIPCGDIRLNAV

Another data set concerns the target recombinant p300 (Homo sapiens (Human), UniProt Q09472). As to the kind of experiment: HAT activity inhibition experiment (SensoLyte HAT(p300) Assay Kit). In kind it is biochemical. How it is done: The HAT activity inhibitory ability of HAT inhibitors was evaluated using SensoLyte HAT(p300) Assay Kit (ANASPEC, AS-72172). Specifically, 7.5 μL of the compound of Examples […] diluted with assay buffer was added to 7.5 μL of recombinant p300 solution diluted 10 times with assay buffer, and the mixture was incubated at room temperature for 10 minutes. 7.5 μL of acetyl CoA solution diluted 10 times with assay buffer and 15 μL of histone H3 peptide diluted 10 times with assay buffer were added thereto, and the mixture was incubated at 37° C. for 30 minutes. 37.5 μL of Stop Solution was added to stop the reaction. 75 μL of p300 Developer solution diluted 50 times with assay buffer was added, and the mixture was incubated at room temperature for 30 minutes under light-shielded conditions. The fluorescence at 513 nm when irradiated with 389 nm excitation light was measured using a multiplate reader.

Sequence of recombinant p300 (Q09472 whole entry): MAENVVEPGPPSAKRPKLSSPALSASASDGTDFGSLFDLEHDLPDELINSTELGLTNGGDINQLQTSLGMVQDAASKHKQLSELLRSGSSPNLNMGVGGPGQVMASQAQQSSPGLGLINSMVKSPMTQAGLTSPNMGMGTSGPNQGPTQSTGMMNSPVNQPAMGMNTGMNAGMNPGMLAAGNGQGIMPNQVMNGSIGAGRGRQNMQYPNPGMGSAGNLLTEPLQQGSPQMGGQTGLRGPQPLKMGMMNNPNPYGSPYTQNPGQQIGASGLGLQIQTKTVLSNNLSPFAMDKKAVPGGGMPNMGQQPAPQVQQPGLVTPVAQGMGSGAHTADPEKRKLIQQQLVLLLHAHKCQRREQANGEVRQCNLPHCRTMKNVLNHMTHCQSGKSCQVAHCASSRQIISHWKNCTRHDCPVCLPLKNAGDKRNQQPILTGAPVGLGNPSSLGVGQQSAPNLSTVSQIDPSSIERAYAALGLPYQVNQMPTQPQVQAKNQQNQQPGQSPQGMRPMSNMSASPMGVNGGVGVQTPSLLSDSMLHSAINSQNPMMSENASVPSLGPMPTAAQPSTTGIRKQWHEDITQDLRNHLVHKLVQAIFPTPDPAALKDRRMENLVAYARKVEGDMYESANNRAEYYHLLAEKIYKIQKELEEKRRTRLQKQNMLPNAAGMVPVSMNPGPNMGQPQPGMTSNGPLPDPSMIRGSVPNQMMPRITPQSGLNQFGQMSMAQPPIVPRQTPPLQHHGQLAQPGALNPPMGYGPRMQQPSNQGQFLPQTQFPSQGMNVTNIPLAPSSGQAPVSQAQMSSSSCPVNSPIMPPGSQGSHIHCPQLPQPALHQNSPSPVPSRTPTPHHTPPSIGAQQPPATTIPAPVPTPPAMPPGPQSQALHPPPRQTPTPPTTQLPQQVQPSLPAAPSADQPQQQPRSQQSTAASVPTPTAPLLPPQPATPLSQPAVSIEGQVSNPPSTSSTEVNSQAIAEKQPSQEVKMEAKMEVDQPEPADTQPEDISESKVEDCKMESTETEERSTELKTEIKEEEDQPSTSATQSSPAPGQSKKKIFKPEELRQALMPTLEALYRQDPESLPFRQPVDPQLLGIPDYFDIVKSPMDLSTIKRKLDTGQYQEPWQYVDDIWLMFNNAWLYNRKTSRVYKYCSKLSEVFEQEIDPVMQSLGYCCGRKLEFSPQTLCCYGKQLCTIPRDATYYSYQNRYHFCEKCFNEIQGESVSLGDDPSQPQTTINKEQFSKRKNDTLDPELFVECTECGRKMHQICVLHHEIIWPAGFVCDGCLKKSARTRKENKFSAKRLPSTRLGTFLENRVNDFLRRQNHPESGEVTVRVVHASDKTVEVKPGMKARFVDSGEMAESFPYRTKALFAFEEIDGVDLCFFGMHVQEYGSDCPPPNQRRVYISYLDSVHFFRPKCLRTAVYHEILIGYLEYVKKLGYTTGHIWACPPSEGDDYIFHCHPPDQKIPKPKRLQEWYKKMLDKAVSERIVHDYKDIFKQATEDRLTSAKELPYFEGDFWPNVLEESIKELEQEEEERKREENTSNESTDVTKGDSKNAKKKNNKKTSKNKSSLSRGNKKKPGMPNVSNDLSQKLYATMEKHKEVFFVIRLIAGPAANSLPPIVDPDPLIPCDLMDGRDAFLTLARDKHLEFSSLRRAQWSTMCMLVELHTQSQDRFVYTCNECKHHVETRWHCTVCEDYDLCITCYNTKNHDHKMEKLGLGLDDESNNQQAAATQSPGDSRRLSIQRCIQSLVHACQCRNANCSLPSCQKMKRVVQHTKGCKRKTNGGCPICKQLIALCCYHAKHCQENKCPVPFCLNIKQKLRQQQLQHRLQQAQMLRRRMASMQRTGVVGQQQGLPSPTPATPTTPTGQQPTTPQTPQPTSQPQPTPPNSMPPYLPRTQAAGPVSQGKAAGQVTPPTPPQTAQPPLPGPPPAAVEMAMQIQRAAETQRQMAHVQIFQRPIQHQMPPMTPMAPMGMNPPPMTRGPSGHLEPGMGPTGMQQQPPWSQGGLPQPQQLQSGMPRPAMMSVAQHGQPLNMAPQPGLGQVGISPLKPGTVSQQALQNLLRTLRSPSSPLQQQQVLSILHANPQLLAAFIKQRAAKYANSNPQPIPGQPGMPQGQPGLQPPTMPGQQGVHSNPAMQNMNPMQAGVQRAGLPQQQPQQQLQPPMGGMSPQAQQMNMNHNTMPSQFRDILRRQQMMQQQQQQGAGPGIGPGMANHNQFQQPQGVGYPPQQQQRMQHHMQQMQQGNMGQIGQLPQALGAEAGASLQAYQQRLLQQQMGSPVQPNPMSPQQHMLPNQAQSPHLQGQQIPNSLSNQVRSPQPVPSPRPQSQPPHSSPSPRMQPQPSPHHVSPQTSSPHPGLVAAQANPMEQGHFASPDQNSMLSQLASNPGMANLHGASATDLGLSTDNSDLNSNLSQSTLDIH

As for `CN1CC(N(Cc2ccc(F)cn2)C(=O)CN2C(=O)N[C@]3(C[C@@H](F)c4cc(-c5cnn(C)c5)ccc43)C2=O)(C(F)(F)F)C1` [Example 20, 2-[(1′S,3′R)-3′-fluoro-5′-(1-methyl-1H-pyrazol-4-yl)-2,5-dioxo-2′,3′-dihydrospiro[imidazolidine-4,1′-inden]-1-yl]-N-[(5-fluoropyridin-2-yl)methyl]-N-[1-methyl-3-(trifluoromethyl)azetidin-3-yl]acetamide], the “Cell proliferation inhibitory effect on G-401 cells (in words)” value (“Cell proliferation inhibitory effect” for short) in the data set with G-401 cells is “strong cell proliferation inhibitory effect”. The “Solubility (in words)” value in “Solubility test” is on record as “high solubility”. Besides, the “Pharmacokinetics (in words)” value in data set [1] was “excellent pharmacokinetics”. Moreover, the “Antitumor effect, oral administration (in words)” value in the data set with G-401 xenograft [2] is listed as “strong antitumor effects”. Besides, the “Antitumor effect, intravenous administration (in words)” value in the data set with G-401 xenograft [3] is “strong antitumor effects”. For the same compound, the “Inhibitory effect on dopamine receptors (in words)” value at hDAT is given as “did not show strong inhibitory activity”. At hSERT, the “Inhibitory effect on serotonin receptors (in words)” value is “did not show strong inhibitory activity”.
Take `O=C1N[C@]2(C[C@@H](F)c3cc(-c4cnn(C5CCN(C6COC6)CC5)c4)ccc32)C(=O)N1CC(=O)N(Cc1ccc(F)cn1)C1(C(F)(F)F)COC1` [Example 23, 2-[(1′S,3′R)-3′-fluoro-5′-{1-[1-(oxetan-3-yl)piperidin-4-yl]-1H-pyrazol-4-yl}-2,5-dioxo-2′,3′-dihydrospiro[imidazolidine-4,1′-inden]-1-yl]-N-[(5-fluoropyridin-2-yl)methyl]-N-[3-(trifluoromethyl)oxetan-3-yl]acetamide]: the “Solubility (in words)” value in the data set “Solubility test” is listed as “high solubility”. Moreover, the “Pharmacokinetics (in words)” value in data set [1] is on record as “excellent pharmacokinetics”. Besides, in the data set on G-401 xenograft [2], the “Antitumor effect, oral administration (in words)” value is on record as “strong antitumor effects”. Besides, the “Antitumor effect, intravenous administration (in words)” value in the data set on G-401 xenograft [3] is “strong antitumor effects”. Besides, the “Inhibitory effect on dopamine receptors (in words)” value on hDAT is listed as “did not show strong inhibitory activity”. For the same compound, the “Inhibitory effect on serotonin receptors (in words)” value at hSERT is “did not show strong inhibitory activity”.
On to `CN1CC(N(Cc2ccc(F)cc2)C(=O)CN2C(=O)N[C@]3(C[C@@H](F)c4cc(-c5cn(C)nc5F)ccc43)C2=O)(C(F)(F)F)C1` [Example 17, 2-[(1′S,3′R)-3′-fluoro-5′-(3-fluoro-1-methyl-1H-pyrazol-4-yl)-2,5-dioxo-2′,3′-dihydrospiro[imidazolidine-4,1′-inden]-1-yl]-N-[(4-fluorophenyl)methyl]-N-[1-methyl-3-(trifluoromethyl)azetidin-3-yl]acetamide], for which, on recombinant p300, the “HAT activity inhibition (in words)” value is given as “strong inhibition of HAT activity”. Also, the “Cell proliferation inhibitory effect” value in the data set on G-401 cells was “strong cell proliferation inhibitory effect”.
On to `CN1CC(N(Cc2ccc(F)cc2)C(=O)CN2C(=O)N[C@]3(C[C@@H](F)c4cc(-c5cnn(C)c5)ccc43)C2=O)(C(F)(F)F)C1` [Example 10, 2-[(1′S,3′R)-3′-fluoro-5′-(1-methyl-1H-pyrazol-4-yl)-2,5-dioxo-2′,3′-dihydrospiro[imidazolidine-4,1′-inden]-1-yl]-N-[(4-fluorophenyl)methyl]-N-[1-methyl-3-(trifluoromethyl)azetidin-3-yl]acetamide], for which the “Solubility (in words)” value in “Solubility test” was “high solubility”. The “Pharmacokinetics (in words)” value in data set [1] is reported as “excellent pharmacokinetics”. In addition, the “Antitumor effect, oral administration (in words)” value in the data set with G-401 xenograft [2] is recorded as “strong antitumor effects”. Moreover, the “Antitumor effect, intravenous administration (in words)” value with G-401 xenograft [3] is given as “strong antitumor effects”. The “Inhibitory effect on dopamine receptors (in words)” value at hDAT was “did not show strong inhibitory activity”. Further, the “Inhibitory effect on serotonin receptors (in words)” value on hSERT was “did not show strong inhibitory activity”.
Regarding `CN1CC(N(Cc2ccc(F)cc2)C(=O)CN2C(=O)N[C@]3(C[C@@H](F)c4cc(-c5cnn(C)c5F)ccc43)C2=O)(C(F)(F)F)C1` [Example 15, 2-[(1′S,3′R)-3′-fluoro-5′-(5-fluoro-1-methyl-1H-pyrazol-4-yl)-2,5-dioxo-2′,3′-dihydrospiro[imidazolidine-4,1′-inden]-1-yl]-N-[(4-fluorophenyl)methyl]-N-[1-methyl-3-(trifluoromethyl)azetidin-3-yl]acetamide], the “HAT activity inhibition (in words)” value on recombinant p300 is recorded as “strong inhibition of HAT activity”. Further, in the data set with G-401 cells, the “Cell proliferation inhibitory effect” value was “strong cell proliferation inhibitory effect”.

(Values after patent publication US20250263415A1, “TERTIARY AMIDE DERIVATIVES SUBSTITUTED WITH 4-MEMBERED RING STRUCTURE” (Sumitomo Pharma Co., Ltd., priority 2024, published 2025).)
